For eleven compounds, IC50, Inhibition and inhibition results are on record in ChEMBL document CHEMBL1151098, “Design of pyrrolo-1,4-benzoxazine derivatives as inhibitors of 5-lipoxygenase and PAF antagonists with anthihistaminic properties” (Bioorg Med Chem Lett, 1994).

Assay [1] is filed under the species Oryctolagus cuniculus. The assay can be described thus: Inhibitory activity of PAF-induced aggregation was determined on rabbit platelets. It counts as functional.
The nature of assay [2]: In vivo inhibitory activity of histamine induced cutaneous reaction was determined at a conc. of 2.1E-5 mol/ Kg. It counts as functional.
Assay [3] deals with T1, Polyunsaturated fatty acid 5-lipoxygenase (Rattus norvegicus, UniProt P12527).
T1 sequence (P12527 whole entry): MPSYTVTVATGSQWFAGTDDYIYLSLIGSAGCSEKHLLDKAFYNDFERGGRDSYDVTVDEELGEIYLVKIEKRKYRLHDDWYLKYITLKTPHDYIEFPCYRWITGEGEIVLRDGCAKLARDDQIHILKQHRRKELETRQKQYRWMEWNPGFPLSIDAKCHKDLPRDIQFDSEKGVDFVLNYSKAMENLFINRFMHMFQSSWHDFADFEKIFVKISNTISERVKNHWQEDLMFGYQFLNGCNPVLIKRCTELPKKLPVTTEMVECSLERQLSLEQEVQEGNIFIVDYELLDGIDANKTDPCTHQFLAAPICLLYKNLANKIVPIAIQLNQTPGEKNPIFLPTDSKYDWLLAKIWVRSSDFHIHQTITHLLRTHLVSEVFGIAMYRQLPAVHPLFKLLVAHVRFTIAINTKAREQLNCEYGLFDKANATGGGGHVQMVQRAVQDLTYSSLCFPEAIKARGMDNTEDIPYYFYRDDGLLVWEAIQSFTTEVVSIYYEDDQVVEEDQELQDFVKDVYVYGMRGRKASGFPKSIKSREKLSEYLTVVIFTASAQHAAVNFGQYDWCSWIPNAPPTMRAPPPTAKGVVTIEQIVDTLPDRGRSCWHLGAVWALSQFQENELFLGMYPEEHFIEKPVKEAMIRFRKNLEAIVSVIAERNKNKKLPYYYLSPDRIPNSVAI
The assay can be described thus: Inhibitory activity against 5-lipoxygenase in rat neutrophils as inhibition of A 23,187-induced LTB4 production.

A short description of assay [4]: In vivo inhibitory activity of histamine induced cutaneous reaction was determined at a conc. of 2.1E-5 mol/ Kg; Not active. Type of assay: functional, organism-based.
Assay [5] is filed under the species Oryctolagus cuniculus. The assay can be described thus: Inhibitory activity of PAF-induced aggregation was determined on rabbit platelets; Not active at 10e-5 M. It counts as functional.

The source made the active and inactive calls. No cut-off for these calls is given here.

As a reminder, the IC50 is the point on the concentration scale where inhibition reaches its midpoint. A high value points to weaker potency in that assay. A word on the Inhibition: it is the share of the control response that was lost under treatment. A lower Inhibition goes with a weak effect. For the compound `Cc1c(-c2ccc(O)cc2)n2c3c(cccc13)OC(CCN1CCN(c3ccccn3)CC1)C2` (stereo not drawn), the IC50 is 8.1 µM in the assay listed under Oryctolagus cuniculus [1] and 2.2 µM in assay [3]. Further, the Inhibition in assay [2] is 47%.
With `Cc1ccnc(N2CCN(CCC3Cn4c(-c5ccc(O)c(O)c5)c(C)c5cccc(c54)O3)CC2)c1` (stereo not drawn), the IC50 in the assay listed under Oryctolagus cuniculus [1] was 4.7 µM; in assay [3], 1.9 µM. Besides, in assay [4], the inhibition entry was “inactive”.
Take `Cc1cccc(N2CCN(CCC3Cn4c(-c5ccc(O)cc5)c(C)c5cccc(c54)O3)CC2)n1` (stereo not drawn): the IC50 in the assay listed under Oryctolagus cuniculus [1] was 10.2 µM; in assay [3] it was 3.3 µM. Also, the Inhibition in assay [2] is 39%.
`COc1ccc2[nH]c(-c3cc(C)c(O)c(C)c3)c(C)c2c1`: the IC50 entry in the assay filed under Oryctolagus cuniculus [5] was “Not Active”; in assay [3], 0.11 µM. In addition, the inhibition result in assay [4] was “inactive”.
For the compound `COc1cc(-c2c(C)c3cccc4c3n2CC(CCN2CCN(c3cc(C)ccn3)CC2)O4)ccc1O` (stereo not drawn), the IC50 is 5 µM in the assay listed under Oryctolagus cuniculus [1] and 3.2 µM in assay [3]. This compound showed an Inhibition in assay [2] of 2%.
For the compound `Cc1ccnc(N2CCN(CCC3Cn4c(-c5ccc(O)cc5)c(C)c5cccc(c54)O3)CC2)c1` (stereo not drawn), the IC50 amounted to 2.7 µM in the assay listed under Oryctolagus cuniculus [1] and 3 µM in assay [3]. The compound further came in with an Inhibition in assay [2] of 10%.
For `COc1cc2c3c(c1)c(C)c(-c1cc(C)c(O)c(C)c1)n3CC(CCN1CCN(c3cc(C)ccn3)CC1)O2` (stereo not drawn), the values for the IC50 (in the assay filed under Oryctolagus cuniculus [1]; in assay [3]) were 2.9 µM and 7.6 µM, respectively. In assay [2], this compound had an Inhibition of 32%.
For the compound `Cc1ccc(N2CCN(CCC3Cn4c(-c5ccc(O)cc5)c(C)c5cccc(c54)O3)CC2)nc1` (stereo not drawn), the values for the IC50 (in the assay listed under Oryctolagus cuniculus [1]; in assay [3]) were 9.9 µM and 3.1 µM, respectively. The Inhibition in assay [2] was determined as 58%.
Regarding `Cc1ccnc(N2CCN(CCC3Cn4c(-c5cc(C)c(O)c(C)c5)c(C)c5cc(O)cc(c54)O3)CC2)c1` (stereo not drawn), the IC50 was 0.45 µM in the assay filed under Oryctolagus cuniculus [1] and 0.29 µM in assay [3]. For the same compound, the Inhibition in assay [2] was determined as 37%.
On to `Cc1ccnc(N2CCN(CCC3Cn4c(-c5cc(C)c(O)c(C)c5)c(C)c5cccc(c54)O3)CC2)c1` (stereo not drawn), for which the IC50 worked out at 1.6 µM in the assay listed under Oryctolagus cuniculus [1] and 1.5 µM in assay [3]. Also, the Inhibition in assay [2] amounted to 15%.
Consider `Cc1cccnc1N1CCN(CCC2Cn3c(-c4ccc(O)cc4)c(C)c4cccc(c43)O2)CC1` (stereo not drawn), for which the results for the IC50 (in the assay filed under Oryctolagus cuniculus [1]; in assay [3]) were 7.2 µM and 2.3 µM, respectively. The Inhibition in assay [2] was 57%.
